Experimental data taken from patent US10696655B2, “Therapeutic compounds and uses thereof” (GENENTECH, INC., priority 2017, dated 2020).

Target: CBP (Homo sapiens (Human), UniProt Q92793)
Experiment: CBP TR-FRET binding assay;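 note: displacement of a biotinylated small-molecule ligand from purified recombinant CBP read by TR-FRET, DMSO-only wells as control, IC50 from nonlinear curve fit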
Settings: His/Flag tagged CBP 4 nM, biotin-ligand 60 nM; read-out: CBP HTRF IC50
Description: IC50 Measurements for Inhibitors Using CBP TR FRET Binding Assay
His/Flag epitope tagged CBP was cloned, expressed, and purified to homogeneity. CBP binding and inhibition was assessed by monitoring the engagement of a biotinylated small molecule compound with the target using the TR-FRET assay technology (Perkin-Elmer). Specifically, in a 384 well ProxiPlate CBP (4 nM final) was combined with biotin-ligand (60 nM final) in 50 mM HEPES (pH 7.5), 50 mM NaCl, 1 mM TCEP, 0.01% (w/v) BSA, and 0.008% (w/v) Brij-35 either in the presence of DMSO (final 0.2% DMSO) or compound dilution series in DMSO. […] After twenty minutes of equilibration, the plates were read on an Envision instrument and IC50S calculated using a four parameter non-linear curve fit.

CBP, sequence (Q92793 whole entry): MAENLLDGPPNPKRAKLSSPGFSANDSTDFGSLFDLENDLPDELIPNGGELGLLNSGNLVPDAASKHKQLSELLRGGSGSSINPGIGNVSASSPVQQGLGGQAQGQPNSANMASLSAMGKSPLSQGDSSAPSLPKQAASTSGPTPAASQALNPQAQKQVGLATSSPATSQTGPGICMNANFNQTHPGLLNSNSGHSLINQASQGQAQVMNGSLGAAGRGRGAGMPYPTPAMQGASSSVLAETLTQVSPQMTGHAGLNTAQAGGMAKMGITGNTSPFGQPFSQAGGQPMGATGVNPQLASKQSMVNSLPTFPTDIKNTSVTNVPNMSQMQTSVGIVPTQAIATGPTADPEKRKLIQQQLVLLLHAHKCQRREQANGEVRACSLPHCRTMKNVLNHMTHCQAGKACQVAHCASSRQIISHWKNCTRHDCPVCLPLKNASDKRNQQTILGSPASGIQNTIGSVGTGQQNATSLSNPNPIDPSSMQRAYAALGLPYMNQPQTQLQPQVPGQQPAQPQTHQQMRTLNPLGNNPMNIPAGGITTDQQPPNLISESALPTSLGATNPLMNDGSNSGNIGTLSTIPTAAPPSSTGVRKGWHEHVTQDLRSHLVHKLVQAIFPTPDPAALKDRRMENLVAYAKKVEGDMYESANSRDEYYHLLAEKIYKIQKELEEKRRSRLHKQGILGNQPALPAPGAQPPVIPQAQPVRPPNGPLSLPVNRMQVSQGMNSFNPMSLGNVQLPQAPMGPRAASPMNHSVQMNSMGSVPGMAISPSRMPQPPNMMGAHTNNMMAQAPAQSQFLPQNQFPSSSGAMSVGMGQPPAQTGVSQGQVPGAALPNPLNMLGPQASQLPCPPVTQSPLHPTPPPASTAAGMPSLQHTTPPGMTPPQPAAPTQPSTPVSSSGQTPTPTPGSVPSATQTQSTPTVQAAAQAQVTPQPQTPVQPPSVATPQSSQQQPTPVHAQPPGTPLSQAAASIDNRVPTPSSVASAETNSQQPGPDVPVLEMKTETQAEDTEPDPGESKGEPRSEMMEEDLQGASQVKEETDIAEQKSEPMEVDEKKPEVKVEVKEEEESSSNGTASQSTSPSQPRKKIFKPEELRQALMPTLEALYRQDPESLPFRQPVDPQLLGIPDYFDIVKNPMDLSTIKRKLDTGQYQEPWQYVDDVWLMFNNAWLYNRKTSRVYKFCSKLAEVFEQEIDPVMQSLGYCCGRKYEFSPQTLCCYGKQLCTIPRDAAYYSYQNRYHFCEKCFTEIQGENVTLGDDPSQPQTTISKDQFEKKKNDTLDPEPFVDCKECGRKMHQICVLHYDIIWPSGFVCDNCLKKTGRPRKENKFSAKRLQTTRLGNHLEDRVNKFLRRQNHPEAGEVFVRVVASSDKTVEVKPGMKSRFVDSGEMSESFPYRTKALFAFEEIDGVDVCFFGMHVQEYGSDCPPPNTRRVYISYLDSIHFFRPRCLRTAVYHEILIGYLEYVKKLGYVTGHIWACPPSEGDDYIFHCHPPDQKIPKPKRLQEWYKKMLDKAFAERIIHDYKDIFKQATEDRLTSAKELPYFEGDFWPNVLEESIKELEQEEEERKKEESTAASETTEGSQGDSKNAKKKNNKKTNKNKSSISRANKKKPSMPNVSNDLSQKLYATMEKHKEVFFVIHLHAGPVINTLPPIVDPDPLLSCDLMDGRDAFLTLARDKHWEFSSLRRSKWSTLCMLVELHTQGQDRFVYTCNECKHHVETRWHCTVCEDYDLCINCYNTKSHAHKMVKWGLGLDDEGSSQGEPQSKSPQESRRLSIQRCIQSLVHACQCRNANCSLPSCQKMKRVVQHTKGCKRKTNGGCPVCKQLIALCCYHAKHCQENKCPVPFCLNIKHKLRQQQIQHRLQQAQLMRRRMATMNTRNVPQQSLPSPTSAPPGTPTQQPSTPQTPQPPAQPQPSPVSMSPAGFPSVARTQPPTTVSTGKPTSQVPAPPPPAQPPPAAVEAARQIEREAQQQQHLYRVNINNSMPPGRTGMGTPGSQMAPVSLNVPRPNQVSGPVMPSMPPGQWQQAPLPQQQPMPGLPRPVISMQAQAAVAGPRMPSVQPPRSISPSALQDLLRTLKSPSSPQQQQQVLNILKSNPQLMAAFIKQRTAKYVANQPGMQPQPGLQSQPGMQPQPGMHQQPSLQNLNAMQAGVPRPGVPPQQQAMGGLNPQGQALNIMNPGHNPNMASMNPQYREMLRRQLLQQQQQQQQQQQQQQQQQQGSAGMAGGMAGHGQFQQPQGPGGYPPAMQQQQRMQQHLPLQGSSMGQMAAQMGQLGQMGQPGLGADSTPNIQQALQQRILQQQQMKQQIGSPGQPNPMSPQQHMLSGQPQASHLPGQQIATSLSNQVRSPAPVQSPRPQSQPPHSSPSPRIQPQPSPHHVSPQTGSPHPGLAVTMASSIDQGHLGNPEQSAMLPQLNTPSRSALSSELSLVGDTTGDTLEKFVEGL

For `CC1C(=O)N(C)c2cc(N3CCCc4cc(-c5cnn(C)c5)c(C(F)F)cc43)ccc21` (stereo in doubt) [Example 92, (R)-6-[7-(difluoromethyl)-6-(1-methylpyrazol-4-yl)-3,4-dihydro-2H-quinolin-1-yl]-1,3-dimethyl-indolin-2-one], which IC50 is on record?
Its IC50 is 42 nM.

With `CC1C(=O)N(C)c2cc(N3CCCc4cc(-c5cnn(C)c5)c(C(F)F)cc43)ccc21` (stereo in doubt) [Example 93, (S)-6-[7-(difluoromethyl)-6-(1-methylpyrazol-4-yl)-3,4-dihydro-2H-quinolin-1-yl]-1,3-dimethyl-indolin-2-one] as the compound, how does the IC50 read?
The IC50 was 95 nM.

`CNC(=O)N1CCOc2ccc(-c3nccc4ccccc34)cc2C1` [Example 1, 7-(isoquinolin-1-yl)-N-methyl-2,3-dihydrobenzo[f][1,4]oxazepine-4(5H)-carboxamide] was tested. Which IC50 did it give?
Its IC50 is 187 nM.

Which IC50 does the source give for `CNC(=O)N1CCOc2ccc(-c3nc(N)cc4cnccc34)cc2C1` [Example 2] here?
The IC50 was 321 nM.

Which IC50 does the source give for `CNC(=O)N1CCOc2ccc(-c3c(C)ccc4c3cnn4C)cc2C1` [Example 3, 7-(1,5-dimethylindazol-4-yl)-N-methyl-3,5-dihydro-2H-1,4-benzoxazepine-4-carboxamide] here?
The IC50 was 57 nM.

Which IC50 does the source give for `CNC(=O)N1CCOc2ccc(-c3ccnc4ccccc34)cc2C1` [Example 4] here?
The IC50 was 193 nM.

How did the IC50 turn out when `CNC(=O)N1CCOc2ccc(-c3cccc4nn(C)cc34)cc2C1` [Example 5] was run?
Its IC50 is 296 nM.

For `CNC(=O)N1CCOc2ccc(-c3cccc4ncccc34)cc2C1` [Example 6], which IC50 is on record?
The IC50 was 362 nM.

With `CNC(=O)N1CCOc2ccc(-c3cc(C)ccc3C)cc2C1` [Example 7] as the compound, how does the IC50 read?
Its IC50 is 273 nM.

Which IC50 does the source give for `CNC(=O)N1CCOc2ccc(-c3cccc4cnn(C)c34)cc2C1` [Example 8] here?
Its IC50 is 394 nM.

With `CNC(=O)N1CCOc2ccc(-c3c(C)ccc4[nH]ncc34)cc2C1` [Example 9] as the compound, how does the IC50 read?
The IC50 was 78 nM.

For `CNC(=O)N1CCOc2ccc(-c3cccc4c3cnn4C)cc2C1` [Example 10], which IC50 is on record?
The IC50 was 96 nM.

Which IC50 does the source give for `CNC(=O)N1CCOc2ccc(-c3cncc4ccccc34)cc2C1` [Example 11] here?
Its IC50 is 281 nM.

For `CNC(=O)N1CCOc2ccc(-c3c(F)ccc4[nH]ccc34)cc2C1` [Example 12], which IC50 is on record?
The IC50 was 59 nM.

How did the IC50 turn out when `CNC(=O)N1CCOc2ccc(-c3ccc4[nH]ccc4c3)cc2C1` [Example 13] was run?
Its IC50 is 267 nM.

How did the IC50 turn out when `CNC(=O)N1CCOc2ccc(-c3cccc4[nH]ncc34)cc2C1` [Example 14] was run?
The IC50 was 102 nM.

How did the IC50 turn out when `CNC(=O)N1CCOc2ccc(-c3cccc4cn[nH]c34)cc2C1` [Example 15] was run?
Its IC50 is 391 nM.

With `CN1C(=O)CCc2ccc(N3CCCc4cc(-c5cnn(C)c5)c(C(F)F)cc43)cc21` [Example 19] as the compound, how does the IC50 read?
The IC50 was 33 nM.

`CN1C(=O)C(C)(C)c2ccc(N3CCCc4cc(-c5cnn(C)c5)c(C(F)F)cc43)cc21` [Example 20] was tested. Which IC50 did it give?
The IC50 was 1750 nM.

How did the IC50 turn out when `Cn1cc(-c2cc3c(cc2C(F)F)N(c2ccc4c(c2)sc(=O)n4C)CCC3)cn1` [Example 22] was run?
The IC50 was 1690 nM.

For `Cn1cc(-c2ccc3c(c2)CCCN3c2ccc3sc(=O)n(C)c3c2)cn1` [Example 23], which IC50 is on record?
Its IC50 is 317 nM.

How did the IC50 turn out when `Cn1cc(-c2cc3c(cc2C(F)F)N(c2cc4c(cn2)n(C)c(=O)n4C)CCC3)cn1` [Example 24] was run?
The IC50 was 106 nM.

How did the IC50 turn out when `Cn1cc(-c2cc3c(cc2C(F)F)N(c2cnc4c(c2)n(C)c(=O)n4C)CCC3)cn1` [Example 25] was run?
Its IC50 is 38 nM.

`Cn1cc(-c2cc3c(cc2C(F)F)N(c2ccc4c(n2)n(C)c(=O)n4C)CCC3)cn1` [Example 26] was tested. Which IC50 did it give?
Its IC50 is 2280 nM.

For `CNC(=O)c1ccc2nccc(N3CCCc4cc(-c5cnn(C)c5)c(C(F)F)cc43)c2c1` [Example 27, 4-[7-(difluoromethyl)-6-(1-methylpyrazol-4-yl)-3,4-dihydro-2H-quinolin-1-yl]-N-methyl-quinoline-6-carboxamide], which IC50 is on record?
Its IC50 is 34 nM.

How did the IC50 turn out when `COC(=O)c1ccc2nccc(N3CCCc4cc(-c5cnn(C)c5)ccc43)c2c1` [Example 28] was run?
The IC50 was 199 nM.

With `CNC(=O)c1ccc2nccc(N3CCCc4cc(-c5cnn(C)c5)ccc43)c2c1` [Example 29] as the compound, how does the IC50 read?
The IC50 was 160 nM.

`CNC(=O)c1cnn2ccc(N3CCCc4cc(-c5cnn(C)c5)c(C(F)F)cc43)cc12` [Example 30] was tested. Which IC50 did it give?
Its IC50 is 543 nM.

For `CCn1c(=O)n(C)c2cc(N3CCCc4cc(-c5cnn(C)c5)c(C(F)F)cc43)ccc21` [Example 31, 5-[7-(difluoromethyl)-6-(1-methylpyrazol-4-yl)-3,4-dihydro-2H-quinolin-1-yl]-1-ethyl-3-methyl-benzimidazol-2-one], which IC50 is on record?
Its IC50 is 172 nM.

For `CCn1c(=O)n(C)c2ccc(N3CCCc4cc(-c5cnn(C)c5)c(C(F)F)cc43)cc21` [Example 32], which IC50 is on record?
The IC50 was 48 nM.

For `Cn1cc(-c2cc3c(cc2C(F)F)N(c2cc(C4CC4)c4c(c2)n(C)c(=O)n4C)CCC3)cn1` [Example 38], which IC50 is on record?
The IC50 was 16 nM.

Which IC50 does the source give for `CNc1cc(N2CCCc3cc(-c4cnn(C)c4)c(C(F)F)cc32)cc2c1n(C)c(=O)n2C` [Example 42] here?
Its IC50 is 19 nM.

For `Cn1cc(-c2cc3c(cc2C(F)F)N(c2cc(N4CCCCC4)c4c(c2)n(C)c(=O)n4C)CCC3)cn1` [Example 44], which IC50 is on record?
Its IC50 is 26 nM.

`CNC(=O)c1cn(C)c2ccc(-c3cccc4cc(-c5cnn(C)c5)ncc34)cc12` [Example 49] was tested. Which IC50 did it give?
Its IC50 is 22 nM.

Which IC50 does the source give for `CCn1cc(C(=O)NC)c2cc(N3CCCc4cc(-c5cnn(C)c5)c(C(F)F)cc43)ccc21` [Example 51] here?
The IC50 was 27 nM.

For `CNC(=O)c1c[nH]c2ccc(N3CCCc4cc(-c5cnn(C)c5)ccc43)cc12` [Example 53], which IC50 is on record?
The IC50 was 48 nM.

For `CNC(=O)c1cn(C)c2cnc(N3CCCc4cc(-c5cnn(C)c5)c(C(F)F)cc43)nc12` [Example 61], which IC50 is on record?
The IC50 was 26 nM.

Which IC50 does the source give for `CNC(=O)c1c[nH]c2cnc(N3CCCc4cc(-c5cnn(C)c5)c(C(F)F)cc43)nc12` [Example 70] here?
Its IC50 is 18 nM.

How did the IC50 turn out when `CNC(=O)c1n[nH]c2ccc(N3CCCc4cc(-c5cnn(C)c5)c(C(F)F)cc43)nc12` [Example 71] was run?
The IC50 was 187 nM.

How did the IC50 turn out when `CNC(=O)c1cnc2ccc(N3CCCc4cc(-c5cnn(C)c5)c(C(F)F)cc43)nn12` [Example 72, 6-(7-(difluoromethyl)-6-(1-methyl-1H-pyrazol-4-yl)-3,4-dihydroquinolin-1(2H)-yl)-N-methylimidazo[1,2-b]pyridazine-3-carboxamide] was run?
Its IC50 is 110 nM.

How did the IC50 turn out when `CNC(=O)c1coc2ccc(N3CCCc4cc(-c5cnn(C)c5)c(C(F)F)cc43)cc12` [Example 73, 5-(7-(difluoromethyl)-6-(1-methyl-1H-pyrazol-4-yl)-3,4-dihydroquinolin-1(2H)-yl)-N-methylbenzofuran-3-carboxamide] was run?
The IC50 was 80 nM.

Which IC50 does the source give for `Cn1cc(-c2cc3c(cc2C(F)F)N(c2cnc4[nH]cc(-c5cnn(C)c5)c4n2)CCC3)cn1` [Example 74, 7-(difluoromethyl)-6-(1-methyl-1H-pyrazol-4-yl)-1-(7-(1-methyl-1H-pyrazol-4-yl)-5H-pyrrolo[2,3-b]pyrazin-2-yl)-1,2,3,4-tetrahydroquinoline] here?
The IC50 was 108 nM.

With `Cn1cc(-c2ccc3c(c2)CCCN3c2cnc3[nH]cc(-c4cnn(C)c4)c3n2)cn1` [Example 75, 6-(1-methyl-1H-pyrazol-4-yl)-1-(7-(1-methyl-1H-pyrazol-4-yl)-5H-pyrrolo[2,3-b]pyrazin-2-yl)-1,2,3,4-tetrahydroquinoline] as the compound, how does the IC50 read?
The IC50 was 244 nM.

With `CNC(=O)N1CCOc2ccc(-c3c(C)ccc(-c4cnn(C)c4)c3C(F)F)cc2C1` [Example 76, 7-(2-(difluoromethyl)-6-methyl-3-(1-methyl-1H-pyrazol-4-yl)phenyl)-N-methyl-2,3-dihydrobenzo[f][1,4]oxazepine-4(5H)-carboxamide] as the compound, how does the IC50 read?
Its IC50 is 243 nM.
